PubChem BioAssay AID248 (DTP/NCI, 2004)
Toxic doses and inconclusive results are not listed. Square brackets hold non-standard residues; d marks the D form. Peptide text beside a SMILES is read from it. * marks the point of attachment. ξ: configuration not given here. Cbz = O=C(OCc1ccccc1)*; ξT = CC(O)C(N)C(=O)O; OBn = c1ccc(CO*)cc1

System: L1210 leukemia ip in BDF1 mice, survival T/C
Test: NCI In Vivo Anticancer Drug Screen. Data for tumor model L1210 Leukemia (intraperitoneal) in B6D2F1 (BDF1) mice
Settings: endpoint: mean survival time, higher = longer survival
Summary of the method: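 In this screen, tumor-bearing mice given compound are compared to those given vehicle, and their survival values are reported as a treated-to-control quotient.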

[1] = dose: 100.0 mg/kg/injection, schedule: Q01DX001 (ip), vehicle: saline
[2] = dose: 100.0 mg/kg/injection, schedule: Q04DX003 (ip), vehicle: saline
[3] = dose: 200.0 mg/kg/injection, schedule: Q01DX001 (ip), vehicle: saline
[4] = dose: 200.0 mg/kg/injection, schedule: Q04DX003 (ip), vehicle: saline
[5] = dose: 400.0 mg/kg/injection, schedule: Q04DX003 (ip), vehicle: saline
[6] = dose: 100.0 mg/kg/injection, schedule: Q01DX009 (ip), vehicle: saline with Tween-80
[7] = dose: 200.0 mg/kg/injection, schedule: Q01DX009 (ip), vehicle: saline with Tween-80
[8] = dose: 400.0 mg/kg/injection, schedule: Q01DX009 (ip), vehicle: saline with Tween-80
[9] = dose: 100.0 mg/kg/injection, schedule: Q04DX003 (ip), vehicle: saline with Tween-80
[10] = dose: 200.0 mg/kg/injection, schedule: Q04DX003 (ip), vehicle: saline with Tween-80
[11] = dose: 400.0 mg/kg/injection, schedule: Q04DX003 (ip), vehicle: saline with Tween-80
[12] = dose: 50.0 mg/kg/injection, schedule: Q01DX009 (ip), vehicle: saline
[13] = dose: 100.0 mg/kg/injection, schedule: Q01DX009 (ip), vehicle: saline
[14] = dose: 200.0 mg/kg/injection, schedule: Q01DX009 (ip), vehicle: saline
[15] = dose: 100.0 mg/kg/injection, schedule: Q01DX009 (ip), vehicle: Klucel (hydroxypropylcellulose) (HPC)
[16] = dose: 200.0 mg/kg/injection, schedule: Q01DX009 (ip), vehicle: Klucel (hydroxypropylcellulose) (HPC)
[17] = dose: 400.0 mg/kg/injection, schedule: Q01DX009 (ip), vehicle: Klucel (hydroxypropylcellulose) (HPC)
[18] = dose: 100.0 mg/kg/injection, schedule: Q04DX003 (ip), vehicle: Klucel (hydroxypropylcellulose) (HPC)
[19] = dose: 200.0 mg/kg/injection, schedule: Q04DX003 (ip), vehicle: Klucel (hydroxypropylcellulose) (HPC)
[20] = dose: 400.0 mg/kg/injection, schedule: Q04DX003 (ip), vehicle: Klucel (hydroxypropylcellulose) (HPC)
[21] = dose: 12.5 mg/kg/injection, schedule: Q01DX009 (ip), vehicle: Klucel (hydroxypropylcellulose) (HPC)
[22] = dose: 25.0 mg/kg/injection, schedule: Q01DX009 (ip), vehicle: Klucel (hydroxypropylcellulose) (HPC)
[23] = dose: 50.0 mg/kg/injection, schedule: Q01DX009 (ip), vehicle: Klucel (hydroxypropylcellulose) (HPC)

Cc1cc(N(CCOS(C)(=O)=O)CCOS(C)(=O)=O)ccc1N=O
T/C (dose: 62.5 micrograms/kg/injection, schedule: Q01DX010 (ip), vehicle: saline): 121 % of control

Nc1nc2c(c(-c3ccccc3)n1)CN(CCC(=O)O)C2=O
T/C [1]: 103 % of control | T/C [2]: 98 % of control | T/C [3]: 107 % of control | T/C [4]: 100 % of control | T/C (dose: 400.0 mg/kg/injection, schedule: Q01DX001 (ip), vehicle: saline): 100 % of control | T/C [5]: 98 % of control

CCCCCCNCCC[P+](c1ccccc1)(c1ccccc1)c1ccccc1
T/C (dose: 12.5 mg/kg/injection, schedule: Q04DX002 (ip), vehicle: saline): 91 % of control | T/C (dose: 25.0 mg/kg/injection, schedule: Q04DX002 (ip), vehicle: saline): 98 % of control | T/C (dose: 50.0 mg/kg/injection, schedule: Q04DX002 (ip), vehicle: saline): 98 % of control

Cc1nc2cc3ccccc3c3ccc4cccc1c4c23
T/C [6]: 93 % of control | T/C [7]: 93 % of control | T/C [8]: 87 % of control

CC(O)C(NC(=O)CNC(=O)OCc1ccccc1)C(=O)OCc1ccccc1 (stereo not drawn) (Cbz-Gly-[ξT]-OBn)
T/C [9]: 97 % of control | T/C [10]: 105 % of control | T/C [11]: 97 % of control

O=C(Nc1ccc(NC(=O)Nc2cccc(C3=NCCCN3)c2)cc1)Nc1ccc(C2=NCCCN2)cc1
T/C (dose: 1.25 mg/kg/injection, schedule: Q01DX Z (ip), vehicle: carboxymethylcellulose (CMC)): 102 % of control | T/C (dose: 2.5 mg/kg/injection, schedule: Q01DX Z (ip), vehicle: carboxymethylcellulose (CMC)): 109 % of control | T/C (dose: 5.0 mg/kg/injection, schedule: Q01DX Z (ip), vehicle: carboxymethylcellulose (CMC)): 113 % of control | T/C (dose: 8.5 mg/kg/injection, schedule: Q01DX Z (ip), vehicle: carboxymethylcellulose (CMC)): 170 % of control | T/C (dose: 10.0 mg/kg/injection, schedule: Q01DX Z (ip), vehicle: carboxymethylcellulose (CMC)): 167 % of control | T/C (dose: 15.0 mg/kg/injection, schedule: Q01DX Z (ip), vehicle: carboxymethylcellulose (CMC)): 157 % of control | T/C (dose: 17.0 mg/kg/injection, schedule: Q01DX Z (ip), vehicle: carboxymethylcellulose (CMC)): 151 % of control | T/C (dose: 50.0 mg/kg/injection, schedule: Q01DX Z (oral), vehicle: carboxymethylcellulose (CMC)): 102 % of control | T/C (dose: 100.0 mg/kg/injection, schedule: Q01DX Z (oral), vehicle: carboxymethylcellulose (CMC)): 107 % of control | T/C (dose: 200.0 mg/kg/injection, schedule: Q01DX Z (oral), vehicle: carboxymethylcellulose (CMC)): 104 % of control | T/C (dose: 400.0 mg/kg/injection, schedule: Q01DX Z (oral), vehicle: carboxymethylcellulose (CMC)): 102 % of control

CC1CC(C)(C)N=C(CCC2CCCCCC2=O)O1 (stereo unspecified)
T/C (dose: 25.0 mg/kg/injection, schedule: Q01DX009 (ip), vehicle: saline): 98 % of control | T/C [12]: 102 % of control | T/C (dose: 50.0 mg/kg/injection, schedule: Q04DX003 (ip), vehicle: saline with Tween-80): 96 % of control | T/C [13]: 100 % of control | T/C [9]: 93 % of control | T/C [14]: 101 % of control | T/C [10]: 96 % of control

c1ccc([P+](c2ccccc2)(c2ccccc2)C2CCC2)cc1
T/C (dose: 9.4 mg/kg/injection, schedule: Q01DX009 (ip), vehicle: saline with Tween-80): 121 % of control | T/C (dose: 18.8 mg/kg/injection, schedule: Q01DX009 (ip), vehicle: saline with Tween-80): 88 % of control

CCCCCCCCCc1c(C)[nH]c2ccccc2c1=O
T/C [15]: 94 % of control | T/C [2]: 100 % of control | T/C [16]: 86 % of control | T/C [4]: 104 % of control | T/C [17]: 86 % of control | T/C [5]: 100 % of control

COc1ccc(C2CCC(=O)CC2C(=O)O)cc1 (stereo unspecified)
T/C [15]: 92 % of control | T/C [18]: 110 % of control | T/C [16]: 97 % of control | T/C [19]: 98 % of control | T/C [17]: 103 % of control | T/C [20]: 93 % of control

COc1ccc2c(c1Oc1ccc([N+](=O)[O-])cc1[N+](=O)[O-])C13CCN(C)C(C2)C1CCC1(C3)OCCO1 (stereo unspecified)
T/C [21]: 98 % of control | T/C [22]: 121 % of control | T/C [23]: 101 % of control | T/C [15]: 102 % of control | T/C [16]: 102 % of control | T/C [17]: 88 % of control

Cc1nc(Cl)c(CO)c(CO)c1O
T/C [21]: 95 % of control | T/C [22]: 98 % of control | T/C (dose: 25.0 mg/kg/injection, schedule: Q04DX003 (ip), vehicle: Klucel (hydroxypropylcellulose) (HPC)): 94 % of control | T/C [23]: 92 % of control | T/C (dose: 50.0 mg/kg/injection, schedule: Q04DX003 (ip), vehicle: Klucel (hydroxypropylcellulose) (HPC)): 90 % of control | T/C [18]: 106 % of control

COC(=O)/C=C(\C)Nc1ccc(Cc2ccc(NC(C)=O)cc2)cc1
T/C [1]: 95 % of control | T/C [3]: 98 % of control

O=C(Oc1ccc([N+](=O)[O-])cc1)c1ccc(CBr)cc1
T/C [12]: 104 % of control | T/C [13]: 102 % of control | T/C [2]: 94 % of control | T/C [14]: 94 % of control | T/C [4]: 94 % of control

O=C1N=C2C=CC=CN2C(=O)C1Cc1ccccc1 (stereo unspecified)
T/C [6]: 90 % of control | T/C [9]: 98 % of control | T/C [7]: 89 % of control | T/C [10]: 94 % of control | T/C [8]: 96 % of control | T/C [11]: 99 % of control

CCCCCCCCCCCCc1ccc(CS)cc1
T/C [13]: 98 % of control | T/C [2]: 92 % of control | T/C [14]: 101 % of control | T/C [4]: 91 % of control | T/C (dose: 400.0 mg/kg/injection, schedule: Q01DX009 (ip), vehicle: saline): 101 % of control | T/C [5]: 93 % of control

CN(CCc1cnc2nc(N)nc(N)c2n1)c1ccc(C(=O)NC(CCC(=O)O)C(=O)O)cc1 (stereo unspecified)
T/C [21]: 113 % of control | T/C [22]: 118 % of control | T/C [2]: 110 % of control | T/C [4]: 105 % of control

CCOC(=O)NCNC(=O)OCC
T/C (dose: 100.0 mg/kg/injection, schedule: Q01DX009 (ip), vehicle: saline sonified): 104 % of control | T/C (dose: 100.0 mg/kg/injection, schedule: Q04DX003 (ip), vehicle: saline sonified): 100 % of control | T/C (dose: 200.0 mg/kg/injection, schedule: Q01DX009 (ip), vehicle: saline sonified): 95 % of control | T/C (dose: 200.0 mg/kg/injection, schedule: Q04DX003 (ip), vehicle: saline sonified): 97 % of control | T/C (dose: 400.0 mg/kg/injection, schedule: Q01DX009 (ip), vehicle: saline sonified): 91 % of control | T/C (dose: 400.0 mg/kg/injection, schedule: Q04DX003 (ip), vehicle: saline sonified): 94 % of control

O=[N+]([O-])c1ccccc1/C=N/Nc1nnc(N/N=C/c2ccccc2[N+](=O)[O-])c2ccccc12
T/C (dose: 50.0 mg/kg/injection, schedule: Q01DX001 (ip), vehicle: carboxymethylcellulose (CMC)): 104 % of control | T/C (dose: 100.0 mg/kg/injection, schedule: Q01DX001 (ip), vehicle: carboxymethylcellulose (CMC)): 93 % of control | T/C (dose: 200.0 mg/kg/injection, schedule: Q01DX001 (ip), vehicle: carboxymethylcellulose (CMC)): 98 % of control | T/C (dose: 400.0 mg/kg/injection, schedule: Q01DX001 (ip), vehicle: carboxymethylcellulose (CMC)): 98 % of control

CC(=O)Nc1ccc(OC(=O)Nc2cc(C)ccc2C)cc1
T/C [22]: 109 % of control | T/C [23]: 88 % of control | T/C [15]: 94 % of control | T/C (dose: 100.0 mg/kg/injection, schedule: Q04DX002 (ip), vehicle: Klucel (hydroxypropylcellulose) (HPC)): 102 % of control | T/C [18]: 95 % of control | T/C [16]: 89 % of control | T/C (dose: 200.0 mg/kg/injection, schedule: Q04DX002 (ip), vehicle: Klucel (hydroxypropylcellulose) (HPC)): 97 % of control | T/C [19]: 97 % of control | T/C (dose: 400.0 mg/kg/injection, schedule: Q04DX002 (ip), vehicle: Klucel (hydroxypropylcellulose) (HPC)): 100 % of control | T/C [20]: 93 % of control

CC(C)CCCC(C)C1CCC2C3CC=C4CC(C(=O)NN)CCC4(C)C3CCC12C (stereo unspecified)
T/C [9]: 96 % of control | T/C [10]: 96 % of control | T/C [11]: 98 % of control
